Measurements taken from publication PMC6008489 (Bioorganic & Medicinal Chemistry, 2018).
Where two headings read alike, the source gives them in different places.

Key:
Aurora B = Aurora B (Homo sapiens, UniProt Q96GD4); type: biochemical; details: for Ki: calculated from mean IC50 using the Cheng-Prusoff equation, read-out: AurB Ki; for AurB ligand efficiency (LE): from Ki;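 as to all read-outs here: aurora B inhibition measured in a mobility shift assay, underlying mean IC50 taken from two independent duplicate runs at 8 compound concentrations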
Method: IC50 values were obtained for an expanded version of the fragment library using the previously described mobility shift assay.[44] Subsequently, Ki values were estimated from IC50 values to allow better comparison of the activity against targets which were measured at different substrate concentrations (Supplementary data Table 1).
IC50 values for MPS1, Aurora A and Aurora B inhibition were determined as previously described,[44] and Ki values were estimated from the mean IC50 values using the Cheng-Prusoff equation.[48]
Kinase [ATP] (M) [Enzyme] (nM) [Peptide Substrate] (M) MgCl2 (mM)
For all compounds, IC50 values for MPS1, Aurora A, and Aurora B were determined
using MPS1 and Aurora A/B mobility shift assays as described previously.1 IC50
values were calculated from a four-parameter logistic fit of percentage inhibition
versus concentration (at 8 compound concentrations) using GraphPad Prism 5
(GraphPad Software, Inc., CA, USA). Mean IC50 values were determined from two
independent measurements each carried out in duplicate. Ki values were estimated
from the mean IC50 values using the Cheng-Prusoff equation.

MPS1 = target: T1, MPS1 (Homo sapiens, UniProt P33981); test: biochemical; details: read-out: % Inhibition MPS1
T1 sequence (P33981 1-857): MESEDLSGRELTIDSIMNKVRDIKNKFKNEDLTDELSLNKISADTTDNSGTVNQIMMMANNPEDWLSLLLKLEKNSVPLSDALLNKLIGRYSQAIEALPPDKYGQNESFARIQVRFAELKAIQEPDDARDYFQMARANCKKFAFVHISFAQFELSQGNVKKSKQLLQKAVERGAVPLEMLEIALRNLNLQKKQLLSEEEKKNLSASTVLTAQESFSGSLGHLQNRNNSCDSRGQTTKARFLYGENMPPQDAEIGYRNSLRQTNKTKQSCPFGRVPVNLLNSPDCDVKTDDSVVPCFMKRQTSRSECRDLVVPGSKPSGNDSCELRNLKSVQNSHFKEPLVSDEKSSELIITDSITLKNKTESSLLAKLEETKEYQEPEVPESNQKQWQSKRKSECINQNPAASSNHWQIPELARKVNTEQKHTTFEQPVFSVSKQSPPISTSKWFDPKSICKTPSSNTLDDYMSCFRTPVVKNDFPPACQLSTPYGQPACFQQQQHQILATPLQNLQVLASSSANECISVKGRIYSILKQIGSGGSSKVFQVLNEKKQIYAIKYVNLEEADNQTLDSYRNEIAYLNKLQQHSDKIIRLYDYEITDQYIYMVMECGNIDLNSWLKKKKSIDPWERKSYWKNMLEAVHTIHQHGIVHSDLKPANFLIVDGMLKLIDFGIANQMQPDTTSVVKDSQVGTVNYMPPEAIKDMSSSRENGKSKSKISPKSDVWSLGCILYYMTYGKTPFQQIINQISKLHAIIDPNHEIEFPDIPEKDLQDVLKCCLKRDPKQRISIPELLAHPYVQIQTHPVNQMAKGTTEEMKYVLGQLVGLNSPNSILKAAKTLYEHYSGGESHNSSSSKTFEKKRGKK
Method: (§1) In order to test the biochemical activity of our fragment library, a panel of 26 structurally diverse protein kinases was used.
(§2) Screening of 26 kinases using a mobility shift assay
(§3) A mobility shift assay to determine kinase inhibition was carried out using a
(§4) modified version of the ProfilerPro assay kit 1 (Perkin Elmer, Coventry, UK)
(§5) including MPS1 and Aurora B. Each kit contained an enzyme plate, a substrate
(§6) plate, reconstitution buffer, 1 M DTT, protease inhibitor cocktail and termination
(§7) buffer. Test compounds were added as a solution in DMSO.
(§8) peptide phosphorylation assay was carried out as per the manufacturer’s
(§9) instructions. The electrophoretic separation and analysis of the phosphorylated
(§10) and non-phosphorylated peptides was carried out on a 4-sipper chip using a
(§11) LabChip EZReader II (Perkin Elmer). Results were expressed as % inhibition of
(§12) peptide phosphorylation relative to control wells for 0 % (no test compound) and
(§13) 100 % (no ATP) inhibition. The percentage inhibition was calculated using the
(§14) % Inhibition = [1 - (% Conversion Sample / % Conversion 0% Inhibition Control)] x 100

AurA = target: T2, AurA (Homo sapiens, UniProt O14965); test: 26-kinase panel mobility shift assay, single concentration; type: biochemical; details: read-out: % Inhibition AurA
T2 construct: purchased Perkin Elmer (ProfilerPro assay kit 1)
T2 sequence (O14965 1-403): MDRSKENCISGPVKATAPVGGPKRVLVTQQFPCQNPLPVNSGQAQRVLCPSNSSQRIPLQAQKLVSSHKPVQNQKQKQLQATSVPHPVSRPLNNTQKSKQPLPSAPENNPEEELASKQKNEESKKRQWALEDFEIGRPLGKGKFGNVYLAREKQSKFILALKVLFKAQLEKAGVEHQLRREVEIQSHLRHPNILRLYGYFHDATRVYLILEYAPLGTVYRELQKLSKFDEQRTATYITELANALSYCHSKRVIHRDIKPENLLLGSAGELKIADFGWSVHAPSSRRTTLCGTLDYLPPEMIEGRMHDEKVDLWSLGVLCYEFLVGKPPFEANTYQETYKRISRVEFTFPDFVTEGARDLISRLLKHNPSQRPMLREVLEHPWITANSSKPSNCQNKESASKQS
Method: Mobility Shift Assay Protocol
as §2, §3, §4, §5, §6, §7, §8, §9, §10, §11, §12, §13, §14

AurB = AurB (Homo sapiens, UniProt Q96GD4); test: as above; type: biochemical; details: read-out: % Inhibition AurB
Method: Mobility Shift Assay Protocol
as §2, §3, §4, §5, §6, §7, §8, §9, §10, §11, §12, §13, §14

SRC = target: T3, SRC (Homo sapiens, UniProt P12931); test: as above; type: biochemical; details: read-out: % Inhibition SRC
T3 construct: purchased Perkin Elmer (ProfilerPro assay kit 1)
Method: as §1, §2, §3, §4, §5, §6, §7, §8, §9, §10, §11, §12, §13, §14

PRAK = target: T4, PRAK (Homo sapiens, UniProt Q8IW41); test: as above; type: biochemical; details: read-out: % Inhibition PRAK
T4 construct: purchased Perkin Elmer (ProfilerPro assay kit 1)
T4 sequence (Q8IW41 1-473): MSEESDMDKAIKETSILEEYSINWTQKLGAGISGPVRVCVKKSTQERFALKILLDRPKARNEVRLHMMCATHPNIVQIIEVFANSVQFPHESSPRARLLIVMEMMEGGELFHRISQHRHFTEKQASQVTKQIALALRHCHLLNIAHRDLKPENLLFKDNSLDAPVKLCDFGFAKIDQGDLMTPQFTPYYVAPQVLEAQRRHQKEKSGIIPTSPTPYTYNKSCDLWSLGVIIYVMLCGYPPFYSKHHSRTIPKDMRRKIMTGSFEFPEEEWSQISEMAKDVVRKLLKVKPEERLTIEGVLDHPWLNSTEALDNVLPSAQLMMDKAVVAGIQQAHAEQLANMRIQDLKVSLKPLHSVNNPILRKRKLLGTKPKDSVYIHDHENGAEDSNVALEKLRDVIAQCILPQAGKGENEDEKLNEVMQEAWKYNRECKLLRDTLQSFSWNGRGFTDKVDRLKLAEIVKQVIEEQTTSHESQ
Method: as §3, §4, §5, §6, §7
final concentration. […] The
as §8, §9, §10, §11, §12, §13, §14

p38 = target: T5, p38 (Homo sapiens, UniProt Q16539); test: as above; type: biochemical; details: read-out: % Inhibition p38
T5 construct: purchased Perkin Elmer (ProfilerPro assay kit 1)
Method: as §1
Mobility Shift Assay Protocol
as §2, §3, §4, §5, §6, §7
final concentration. […] The
as §8, §9, §10, §11, §12, §13, §14

MSK1 = target: T6, MSK1 (Homo sapiens, UniProt O75582); test: as above; type: biochemical; details: read-out: % Inhibition MSK1
T6 construct: purchased Perkin Elmer (ProfilerPro assay kit 1)
Method: as §1
Mobility Shift Assay Protocol
as §2, §3, §4, §5, §6, §7
final concentration. […] The
as §8, §9, §10, §11, §12, §13, §14

MAPKAPK2 = target: T7, MAPKAPK2 (Homo sapiens, UniProt P49137); test: as above; type: biochemical; details: read-out: % Inhibition MAPKAPK2
T7 construct: purchased Perkin Elmer (ProfilerPro assay kit 1)
Method: as §3, §4, §5, §6, §7, §8, §9, §10, §11, §12, §13, §14

LCK = target: T8, LCK (Homo sapiens, UniProt P06239); test: as above; type: biochemical; details: read-out: % Inhibition LCK
T8 construct: purchased Perkin Elmer (ProfilerPro assay kit 1)
Method: as §3, §4, §5, §6, §7, §8, §9, §10, §11, §12, §13, §14

INSR = target: T9, INSR (Homo sapiens, UniProt P06213); test: as above; type: biochemical; details: read-out: % Inhibition INSR
T9 construct: purchased Perkin Elmer (ProfilerPro assay kit 1)
Method: as §1, §2, §3, §4, §5, §6, §7, §8, §9, §10, §11, §12, §13, §14

FYN = target: T10, FYN (Homo sapiens, UniProt P06241); test: as above; type: biochemical; details: read-out: % Inhibition FYN
T10 construct: purchased Perkin Elmer (ProfilerPro assay kit 1)
Method: as §3, §4, §5, §6, §7, §8, §9, §10, §11, §12, §13, §14

Erk2 = target: T11, Erk2 (Homo sapiens, UniProt P28482); test: as above; type: biochemical; details: read-out: % Inhibition Erk2
T11 construct: purchased Perkin Elmer (ProfilerPro assay kit 1)
Method: as §3, §4, §5, §6, §7, §8, §9, §10, §11, §12, §13, §14

Erk1 = target: T12, Erk1 (Homo sapiens, UniProt P27361); test: as above; type: biochemical; details: read-out: % Inhibition Erk1
T12 construct: purchased Perkin Elmer (ProfilerPro assay kit 1)
Method: as §3, §4, §5, §6, §7, §8, §9, §10, §11, §12, §13, §14

CK1d = target: T13, CK1d (Homo sapiens, UniProt P48730); test: as above; type: biochemical; details: read-out: % Inhibition CK1d
T13 construct: purchased Perkin Elmer (ProfilerPro assay kit 1)
Method: as §3, §4, §5, §6, §7, §8, §9, §10, §11, §12, §13, §14

AKT1 = target: T14, AKT1 (Homo sapiens, UniProt P31749); test: as above; type: biochemical; details: read-out: % Inhibition AKT1
T14 construct: purchased Perkin Elmer ProfilerPro assay kit 1
Method: Mobility Shift Assay Protocol
as §2, §3, §4, §5, §6, §7, §8, §9, §10, §11, §12, §13, §14

ABL = target: T15, ABL (Homo sapiens, UniProt P00519); test: as above; type: biochemical; details: read-out: % Inhibition ABL
T15 construct: purchased Perkin Elmer ProfilerPro assay kit 1
Method: Mobility Shift Assay Protocol
as §2, §3, §4, §5, §6, §7, §8, §9, §10, §11, §12, §13, §14

Sequence of Aurora B (Q96GD4 whole entry): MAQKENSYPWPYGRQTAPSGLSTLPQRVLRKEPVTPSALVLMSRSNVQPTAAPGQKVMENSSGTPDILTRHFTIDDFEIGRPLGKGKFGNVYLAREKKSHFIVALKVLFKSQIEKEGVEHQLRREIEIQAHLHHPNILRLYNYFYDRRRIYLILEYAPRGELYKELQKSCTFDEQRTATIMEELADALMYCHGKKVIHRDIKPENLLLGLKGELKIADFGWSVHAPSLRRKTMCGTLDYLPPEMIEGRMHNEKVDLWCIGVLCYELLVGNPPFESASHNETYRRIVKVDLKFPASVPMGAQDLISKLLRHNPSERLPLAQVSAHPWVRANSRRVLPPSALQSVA
T12 sequence (P27361 whole entry): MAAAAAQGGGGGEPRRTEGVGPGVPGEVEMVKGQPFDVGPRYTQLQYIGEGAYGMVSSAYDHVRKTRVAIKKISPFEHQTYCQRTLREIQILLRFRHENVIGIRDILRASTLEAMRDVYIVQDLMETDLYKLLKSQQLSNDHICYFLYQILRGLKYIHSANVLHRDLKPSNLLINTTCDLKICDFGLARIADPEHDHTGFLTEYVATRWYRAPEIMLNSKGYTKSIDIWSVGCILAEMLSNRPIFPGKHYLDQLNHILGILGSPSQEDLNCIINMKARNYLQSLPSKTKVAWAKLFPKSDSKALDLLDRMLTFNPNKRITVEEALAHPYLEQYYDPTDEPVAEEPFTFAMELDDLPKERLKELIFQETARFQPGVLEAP
T8 sequence (P06239 whole entry): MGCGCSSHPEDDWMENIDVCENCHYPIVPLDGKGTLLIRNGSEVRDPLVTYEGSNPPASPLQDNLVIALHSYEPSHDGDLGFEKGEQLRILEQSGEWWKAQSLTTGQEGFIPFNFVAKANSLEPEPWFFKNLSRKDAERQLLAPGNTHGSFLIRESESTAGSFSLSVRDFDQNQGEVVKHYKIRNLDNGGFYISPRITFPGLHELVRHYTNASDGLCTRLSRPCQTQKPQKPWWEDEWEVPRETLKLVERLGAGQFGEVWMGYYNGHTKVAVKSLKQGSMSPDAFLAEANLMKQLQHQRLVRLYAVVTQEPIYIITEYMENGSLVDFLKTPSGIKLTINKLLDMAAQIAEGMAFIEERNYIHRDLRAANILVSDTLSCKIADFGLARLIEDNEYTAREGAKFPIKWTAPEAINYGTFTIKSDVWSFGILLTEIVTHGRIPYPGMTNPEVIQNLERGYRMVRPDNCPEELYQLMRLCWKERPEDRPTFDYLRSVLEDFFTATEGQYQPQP
T11 sequence (P28482 whole entry): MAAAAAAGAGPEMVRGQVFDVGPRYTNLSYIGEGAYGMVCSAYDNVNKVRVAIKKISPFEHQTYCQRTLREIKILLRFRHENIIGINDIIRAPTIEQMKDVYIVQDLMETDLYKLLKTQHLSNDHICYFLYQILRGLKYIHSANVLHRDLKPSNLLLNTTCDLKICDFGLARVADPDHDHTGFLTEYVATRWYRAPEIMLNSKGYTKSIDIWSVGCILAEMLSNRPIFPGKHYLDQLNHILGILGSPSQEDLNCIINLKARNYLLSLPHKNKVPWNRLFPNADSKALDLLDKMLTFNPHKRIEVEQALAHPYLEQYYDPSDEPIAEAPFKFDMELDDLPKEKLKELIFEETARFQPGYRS
T13 sequence (P48730 whole entry): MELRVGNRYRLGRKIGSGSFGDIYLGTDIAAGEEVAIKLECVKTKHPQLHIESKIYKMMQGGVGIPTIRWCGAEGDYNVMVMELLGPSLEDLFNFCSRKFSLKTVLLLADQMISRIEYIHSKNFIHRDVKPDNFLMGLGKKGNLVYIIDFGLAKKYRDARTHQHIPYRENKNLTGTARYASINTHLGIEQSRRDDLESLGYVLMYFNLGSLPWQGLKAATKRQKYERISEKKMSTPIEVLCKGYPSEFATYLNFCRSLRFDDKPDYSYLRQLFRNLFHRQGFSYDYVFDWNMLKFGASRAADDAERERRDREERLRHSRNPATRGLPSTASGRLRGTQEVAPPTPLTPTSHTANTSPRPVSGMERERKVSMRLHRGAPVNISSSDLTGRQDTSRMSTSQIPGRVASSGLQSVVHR
T9 sequence (P06213 28-1382): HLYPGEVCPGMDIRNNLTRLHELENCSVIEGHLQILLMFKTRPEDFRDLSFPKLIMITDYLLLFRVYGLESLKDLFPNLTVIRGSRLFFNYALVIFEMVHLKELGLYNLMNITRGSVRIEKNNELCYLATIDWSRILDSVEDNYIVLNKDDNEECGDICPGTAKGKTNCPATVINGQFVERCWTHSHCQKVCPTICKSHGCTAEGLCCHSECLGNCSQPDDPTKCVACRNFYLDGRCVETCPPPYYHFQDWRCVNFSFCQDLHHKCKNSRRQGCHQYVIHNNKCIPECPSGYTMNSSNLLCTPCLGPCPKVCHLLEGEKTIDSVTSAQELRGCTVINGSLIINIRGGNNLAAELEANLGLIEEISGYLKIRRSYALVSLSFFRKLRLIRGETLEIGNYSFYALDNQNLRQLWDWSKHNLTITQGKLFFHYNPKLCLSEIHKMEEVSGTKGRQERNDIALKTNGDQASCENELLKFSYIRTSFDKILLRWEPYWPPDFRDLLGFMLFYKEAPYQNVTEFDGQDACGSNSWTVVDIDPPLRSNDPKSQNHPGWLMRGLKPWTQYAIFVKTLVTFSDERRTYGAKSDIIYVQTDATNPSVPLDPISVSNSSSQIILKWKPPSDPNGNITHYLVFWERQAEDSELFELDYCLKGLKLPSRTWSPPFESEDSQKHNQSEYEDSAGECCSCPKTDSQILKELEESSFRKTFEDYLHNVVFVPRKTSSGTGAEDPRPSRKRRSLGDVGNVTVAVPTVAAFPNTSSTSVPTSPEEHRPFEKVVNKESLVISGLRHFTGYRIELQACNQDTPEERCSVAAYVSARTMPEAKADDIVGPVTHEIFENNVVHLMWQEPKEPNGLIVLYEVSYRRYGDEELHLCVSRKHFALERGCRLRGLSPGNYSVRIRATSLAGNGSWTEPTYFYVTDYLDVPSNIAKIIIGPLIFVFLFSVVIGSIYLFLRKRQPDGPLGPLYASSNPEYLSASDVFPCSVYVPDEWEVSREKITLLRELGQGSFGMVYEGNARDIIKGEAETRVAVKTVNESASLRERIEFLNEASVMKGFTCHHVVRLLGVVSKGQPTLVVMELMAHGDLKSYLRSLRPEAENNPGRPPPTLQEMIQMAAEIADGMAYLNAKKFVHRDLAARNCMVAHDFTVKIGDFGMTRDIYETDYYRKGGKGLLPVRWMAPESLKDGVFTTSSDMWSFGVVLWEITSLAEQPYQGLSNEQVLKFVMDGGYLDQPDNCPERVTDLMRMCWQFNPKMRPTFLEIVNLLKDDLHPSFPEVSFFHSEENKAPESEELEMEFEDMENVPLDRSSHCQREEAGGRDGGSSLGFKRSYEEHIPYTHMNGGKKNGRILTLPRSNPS
T14 sequence (P31749 whole entry): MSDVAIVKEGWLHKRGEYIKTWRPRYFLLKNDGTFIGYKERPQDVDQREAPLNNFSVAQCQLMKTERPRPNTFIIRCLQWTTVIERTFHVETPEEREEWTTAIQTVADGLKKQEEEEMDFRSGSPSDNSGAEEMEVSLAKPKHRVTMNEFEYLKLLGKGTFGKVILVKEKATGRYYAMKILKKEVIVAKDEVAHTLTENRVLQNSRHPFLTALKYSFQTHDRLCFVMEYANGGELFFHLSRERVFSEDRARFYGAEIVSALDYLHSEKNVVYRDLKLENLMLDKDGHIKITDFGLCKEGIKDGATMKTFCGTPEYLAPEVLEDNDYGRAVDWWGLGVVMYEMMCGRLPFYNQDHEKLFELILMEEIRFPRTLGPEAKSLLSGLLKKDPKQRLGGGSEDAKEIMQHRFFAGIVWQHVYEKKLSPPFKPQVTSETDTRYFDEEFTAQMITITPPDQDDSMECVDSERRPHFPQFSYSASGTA
T10 sequence (P06241 whole entry): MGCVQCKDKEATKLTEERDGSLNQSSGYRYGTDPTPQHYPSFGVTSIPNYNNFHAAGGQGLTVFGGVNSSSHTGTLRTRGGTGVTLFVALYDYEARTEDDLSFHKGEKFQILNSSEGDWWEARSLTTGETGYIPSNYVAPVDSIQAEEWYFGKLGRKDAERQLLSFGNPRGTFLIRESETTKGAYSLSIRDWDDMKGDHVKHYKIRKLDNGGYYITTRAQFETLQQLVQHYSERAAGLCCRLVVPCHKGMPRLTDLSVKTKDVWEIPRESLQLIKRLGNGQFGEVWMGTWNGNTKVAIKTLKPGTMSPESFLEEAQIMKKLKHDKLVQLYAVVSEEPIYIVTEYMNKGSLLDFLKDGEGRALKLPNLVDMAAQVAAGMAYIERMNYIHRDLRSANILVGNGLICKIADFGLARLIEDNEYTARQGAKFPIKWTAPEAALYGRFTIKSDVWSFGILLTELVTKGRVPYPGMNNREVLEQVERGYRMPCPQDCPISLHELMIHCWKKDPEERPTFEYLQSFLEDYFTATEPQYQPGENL
Sequence of AurB (Q96GD4 whole entry): as the sequence (Q96GD4 whole entry) above
T7 sequence (P49137 whole entry): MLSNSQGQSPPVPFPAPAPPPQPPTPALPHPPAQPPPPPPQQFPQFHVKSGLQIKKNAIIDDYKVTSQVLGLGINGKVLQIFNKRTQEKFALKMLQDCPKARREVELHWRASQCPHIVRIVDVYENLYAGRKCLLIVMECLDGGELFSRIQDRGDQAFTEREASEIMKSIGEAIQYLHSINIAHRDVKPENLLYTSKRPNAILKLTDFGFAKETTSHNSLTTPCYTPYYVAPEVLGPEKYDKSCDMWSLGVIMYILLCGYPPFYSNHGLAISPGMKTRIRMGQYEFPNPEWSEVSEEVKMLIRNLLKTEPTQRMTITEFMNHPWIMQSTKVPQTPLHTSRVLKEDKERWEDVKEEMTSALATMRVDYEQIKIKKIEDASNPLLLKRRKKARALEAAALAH

Structure (SMILES) | Ki (Aurora B) [µM] | AurB ligand efficiency (LE) (Aurora B) | inhibition at 30 µM (MPS1) [%] | inhibition at 30 µM (AurA) [%] | inhibition at 30 µM (AurB) [%] | inhibition at 30 µM (SRC) [%] | inhibition at 30 µM (PRAK) [%] | inhibition at 30 µM (p38) [%] | inhibition at 30 µM (MSK1) [%] | inhibition at 30 µM (MAPKAPK2) [%] | inhibition at 30 µM (LCK) [%] | inhibition at 30 µM (INSR) [%] | inhibition at 30 µM (FYN) [%] | inhibition at 30 µM (Erk2) [%] | inhibition at 30 µM (Erk1) [%] | inhibition at 30 µM (CK1d) [%] | inhibition at 30 µM (AKT1) [%] | inhibition at 30 µM (ABL) [%] | inhibition at 30 µM (MPS1; compound at 30 µM) [%]
CN1CCN(c2ccc(C(=O)Nc3cc(-c4ccncc4)c[nH]c3=O)cc2)CC1 [Compound 22] | 5.5 | 0.25 | 88 | 92 | 71 | 98 | 10 | 6 | 8 | 12 | 97 | 30 | 95 | 1 | 0 | 31 | 13 | 96 | –
O=C(Nc1cc(-c2ccnc(NC3CC3)n2)c[nH]c1=O)c1ccccc1 [Compound 24] | 3.6 | 0.28 | – | 99 | 91 | 99 | 71 | 36 | 83 | 96 | 75 | 27 | 93 | 37 | 33 | 78 | 73 | 88 | 76
